Assay results published in PubChem BioAssay (NCI).
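Protocol summary: plate cells (96-well), add compound at 5 concentrations, incubate 48 h, interpolate endpoints linearly. GI50 marks 50% less growth. TGI marks complete inhibition of growth.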

Legend:
Assay in all cases: DTP human tumour cell line panel, 48 h
786-0 renal = system: 786-0 renal
A549 NSCLC = system: A549 NSCLC
ACHN renal = system: ACHN renal
BT-549 breast = system: BT-549 breast
CAKI-1 renal = system: CAKI-1 renal
CCRF-CEM leukemia = system: CCRF-CEM leukemia
COLO 205 colon = system: COLO 205 colon
DU-145 prostate = system: DU-145 prostate
EKVX NSCLC = system: EKVX NSCLC
HCT-15 colon = system: HCT-15 colon
HL-60(TB) leukemia = system: HL-60(TB) leukemia
HOP-62 NSCLC = system: HOP-62 NSCLC
HOP-92 NSCLC = system: HOP-92 NSCLC
HS 578T breast = system: HS 578T breast
HT29 colon = system: HT29 colon
IGROV1 ovarian = system: IGROV1 ovarian
K-562 leukemia = system: K-562 leukemia
KM12 colon = system: KM12 colon
LOX IMVI melanoma = system: LOX IMVI melanoma
M14 melanoma = system: M14 melanoma
MALME-3M melanoma = system: MALME-3M melanoma
MCF7 breast = system: MCF7 breast
MDA-MB-231 breast = system: MDA-MB-231 breast
MDA-MB-435 = system: MDA-MB-435
MOLT-4 leukemia = system: MOLT-4 leukemia
NCI-H226 lung = system: NCI-H226 lung
NCI-H23 lung = system: NCI-H23 lung
NCI-H460 lung = system: NCI-H460 lung
NCI-H522 lung = system: NCI-H522 lung
NCI/ADR-RES ovarian = system: NCI/ADR-RES ovarian
OVCAR-3 ovarian = system: OVCAR-3 ovarian
OVCAR-4 ovarian = system: OVCAR-4 ovarian
OVCAR-5 ovarian = system: OVCAR-5 ovarian
OVCAR-8 ovarian = system: OVCAR-8 ovarian
PC-3 prostate = system: PC-3 prostate
RPMI-8226 leukemia = system: RPMI-8226 leukemia
RXF 393 renal = system: RXF 393 renal
SF-268 CNS = system: SF-268 CNS
SF-295 CNS = system: SF-295 CNS
SF-539 CNS = system: SF-539 CNS
SK-MEL-2 melanoma = system: SK-MEL-2 melanoma
SK-MEL-28 melanoma = system: SK-MEL-28 melanoma
SK-MEL-5 melanoma = system: SK-MEL-5 melanoma
SK-OV-3 ovarian = system: SK-OV-3 ovarian
SN12C renal = system: SN12C renal
SNB-19 CNS = system: SNB-19 CNS
SNB-75 CNS = system: SNB-75 CNS
SR leukemia = system: SR leukemia
SW-620 colon = system: SW-620 colon
T-47D breast = system: T-47D breast
TK-10 renal = system: TK-10 renal
U251 CNS = system: U251 CNS
UACC-257 melanoma = system: UACC-257 melanoma
UACC-62 melanoma = system: UACC-62 melanoma
UO-31 renal = system: UO-31 renal
A498 renal = system: A498 renal
HCC-2998 colon = system: HCC-2998 colon

## COC(=O)C1=C(C(=O)OC)SC(=C(Cl)C(=S)Oc2ccccc2N)S1
786-0 renal
  GI50: 12.3 µM
  TGI: > 50 µM
A549 NSCLC
  GI50: 18.1 µM
  TGI: > 50 µM
ACHN renal
  GI50: 15 µM
  TGI: > 50 µM
BT-549 breast
  GI50: 10.2 µM
  TGI: 21.6 µM
CAKI-1 renal
  GI50: 13.5 µM
  TGI: 40.7 µM
CCRF-CEM leukemia
  GI50: > 50 µM
  TGI: > 50 µM
COLO 205 colon
  GI50: 26.7 µM
  TGI: > 50 µM
DU-145 prostate
  GI50: 19.8 µM
  TGI: > 50 µM
EKVX NSCLC
  GI50: 46.5 µM
  TGI: > 50 µM
HCT-15 colon
  GI50: 16.4 µM
  TGI: > 50 µM
HL-60(TB) leukemia
  GI50: 14.5 µM
  TGI: > 50 µM
HOP-62 NSCLC
  GI50: 20.1 µM
  TGI: 42.1 µM
HOP-92 NSCLC
  GI50: 37.3 µM
  TGI: > 50 µM
HS 578T breast
  GI50: 15.6 µM
  TGI: 34.2 µM
HT29 colon
  GI50: 33.7 µM
  TGI: > 50 µM
IGROV1 ovarian
  GI50: 3.79 µM
  TGI: 14.5 µM
K-562 leukemia
  GI50: 15.8 µM
  TGI: > 50 µM
KM12 colon
  GI50: > 50 µM
  TGI: > 50 µM
LOX IMVI melanoma
  GI50: 9.16 µM
  TGI: 22.3 µM
M14 melanoma
  GI50: 10.8 µM
  TGI: 29.4 µM
MALME-3M melanoma
  GI50: 18.6 µM
  TGI: > 50 µM
MCF7 breast
  GI50: 5.95 µM
  TGI: 17.3 µM
MDA-MB-231 breast
  GI50: 28 µM
  TGI: > 50 µM
MDA-MB-435
  GI50: 8.94 µM
  TGI: 17 µM
MOLT-4 leukemia
  GI50: 25 µM
  TGI: > 50 µM
NCI-H226 lung
  GI50: 20.5 µM
  TGI: > 50 µM
NCI-H23 lung
  GI50: 10.6 µM
  TGI: > 50 µM
NCI-H460 lung
  GI50: 13.4 µM
  TGI: > 50 µM
NCI-H522 lung
  GI50: 10.4 µM
  TGI: 31.3 µM
NCI/ADR-RES ovarian
  GI50: 13.9 µM
  TGI: 37.1 µM
OVCAR-3 ovarian
  GI50: 10.8 µM
  TGI: 36.1 µM
OVCAR-4 ovarian
  GI50: > 50 µM
  TGI: > 50 µM
OVCAR-5 ovarian
  GI50: 37 µM
  TGI: > 50 µM
OVCAR-8 ovarian
  GI50: 18.7 µM
  TGI: > 50 µM
PC-3 prostate
  GI50: 17.9 µM
  TGI: > 50 µM
RPMI-8226 leukemia
  GI50: 17.9 µM
  TGI: > 50 µM
RXF 393 renal
  GI50: 8.38 µM
  TGI: > 50 µM
SF-268 CNS
  GI50: 15.9 µM
  TGI: > 50 µM
SF-295 CNS
  GI50: 13.7 µM
  TGI: 41.1 µM
SF-539 CNS
  GI50: 13.4 µM
  TGI: 35.5 µM
SK-MEL-2 melanoma
  GI50: 10.2 µM
  TGI: 26.1 µM
SK-MEL-28 melanoma
  GI50: > 50 µM
  TGI: > 50 µM
SK-MEL-5 melanoma
  GI50: 8.43 µM
  TGI: 17.7 µM
SK-OV-3 ovarian
  GI50: 22.3 µM
  TGI: > 50 µM
SN12C renal
  GI50: 18.2 µM
  TGI: > 50 µM
SNB-19 CNS
  GI50: 25.8 µM
  TGI: > 50 µM
SNB-75 CNS
  GI50: 35.1 µM
  TGI: > 50 µM
SR leukemia
  GI50: 12.9 µM
  TGI: 35 µM
SW-620 colon
  GI50: 24.2 µM
  TGI: > 50 µM
T-47D breast
  GI50: > 50 µM
  TGI: > 50 µM
TK-10 renal
  GI50: 49.5 µM
  TGI: > 50 µM
U251 CNS
  GI50: 16.2 µM
  TGI: > 50 µM
UACC-257 melanoma
  GI50: 9.44 µM
  TGI: 18.8 µM
UACC-62 melanoma
  GI50: 16.5 µM
  TGI: > 50 µM
UO-31 renal
  GI50: 10.6 µM
  TGI: 35.6 µM

## ClC(Cl)c1nc(-c2ccccc2)n2nc(-c3ccccc3)cc2n1
786-0 renal
  GI50: 8.7 µM
  TGI: > 100 µM
A498 renal
  GI50: 1.31 µM
  TGI: 2.76 µM
ACHN renal
  GI50: 0.572 µM
  TGI: 3.1 µM
BT-549 breast
  GI50: > 100 µM
  TGI: > 100 µM
CAKI-1 renal
  GI50: 1.6 µM
  TGI: 7.13 µM
CCRF-CEM leukemia
  GI50: > 100 µM
  TGI: > 100 µM
COLO 205 colon
  GI50: 0.778 µM
  TGI: 3.42 µM
EKVX NSCLC
  GI50: 1.94 µM
  TGI: 5.75 µM
HCC-2998 colon
  GI50: 0.573 µM
  TGI: 2.05 µM
HL-60(TB) leukemia
  GI50: 1.65 µM
  TGI: 7.69 µM
HOP-62 NSCLC
  GI50: 0.586 µM
  TGI: 5.6 µM
HOP-92 NSCLC
  GI50: 1.41 µM
  TGI: 5.9 µM
HS 578T breast
  GI50: 1.91 µM
  TGI: 6.46 µM
HT29 colon
  GI50: 0.442 µM
  TGI: > 100 µM
IGROV1 ovarian
  GI50: 3.06 µM
  TGI: > 100 µM
K-562 leukemia
  GI50: 2.59 µM
  TGI: > 100 µM
KM12 colon
  GI50: 0.696 µM
  TGI: 2.38 µM
LOX IMVI melanoma
  GI50: > 100 µM
  TGI: > 100 µM
MALME-3M melanoma
  GI50: 3.3 µM
  TGI: > 100 µM
MCF7 breast
  GI50: 1.08 µM
  TGI: > 100 µM
MOLT-4 leukemia
  GI50: 3.33 µM
  TGI: > 100 µM
NCI-H226 lung
  GI50: 48 µM
  TGI: > 100 µM
NCI-H23 lung
  GI50: 1.42 µM
  TGI: 4.09 µM
NCI-H460 lung
  GI50: 0.411 µM
  TGI: 1.87 µM
NCI-H522 lung
  GI50: 3.63 µM
  TGI: > 100 µM
OVCAR-3 ovarian
  GI50: 1.04 µM
  TGI: 2.68 µM
OVCAR-4 ovarian
  GI50: 1.65 µM
  TGI: 5.64 µM
OVCAR-5 ovarian
  GI50: 2.31 µM
  TGI: 6.44 µM
OVCAR-8 ovarian
  GI50: 1.73 µM
  TGI: > 100 µM
PC-3 prostate
  GI50: 1.66 µM
  TGI: 4.73 µM
RXF 393 renal
  GI50: 0.533 µM
  TGI: 2.38 µM
SF-268 CNS
  GI50: 2.28 µM
  TGI: > 100 µM
SF-295 CNS
  GI50: 1.83 µM
  TGI: 5.66 µM
SF-539 CNS
  GI50: 1.78 µM
  TGI: 5.57 µM
SK-MEL-2 melanoma
  GI50: 31.6 µM
  TGI: > 100 µM
SK-MEL-28 melanoma
  GI50: 1.65 µM
  TGI: 3.1 µM
SK-MEL-5 melanoma
  GI50: > 100 µM
  TGI: > 100 µM
SK-OV-3 ovarian
  GI50: 2.7 µM
  TGI: 9.61 µM
SN12C renal
  GI50: > 100 µM
  TGI: > 100 µM
SNB-19 CNS
  GI50: 1.55 µM
  TGI: 6.85 µM
SNB-75 CNS
  GI50: 1.12 µM
  TGI: 5.24 µM
SR leukemia
  GI50: 1.02 µM
  TGI: 5.61 µM
T-47D breast
  GI50: 2.13 µM
  TGI: > 100 µM
TK-10 renal
  GI50: 1.87 µM
  TGI: 5.7 µM
U251 CNS
  GI50: 0.758 µM
  TGI: 6.44 µM
UACC-257 melanoma
  GI50: 2.1 µM
  TGI: 5.19 µM
UACC-62 melanoma
  GI50: 3.5 µM
  TGI: > 100 µM
